Measured values as given in ChEMBL document CHEMBL1201862, “PubChem BioAssay data set” (2004).
The source made the active and inactive calls.

How the values were obtained:
[1] = target: T1, Probable nicotinate-nucleotide adenylyltransferase (Staphylococcus aureus (strain N315), UniProt P65502); type: functional, Staphylococcus aureus subsp. aureus N315; conditions: read-out: IC50_Mean;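 on IC50 Mean: confirmatory dose-response retesting of NadD inhibitor hits first found in an ultra-high-throughput screen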
T1 sequence (P65502 whole entry): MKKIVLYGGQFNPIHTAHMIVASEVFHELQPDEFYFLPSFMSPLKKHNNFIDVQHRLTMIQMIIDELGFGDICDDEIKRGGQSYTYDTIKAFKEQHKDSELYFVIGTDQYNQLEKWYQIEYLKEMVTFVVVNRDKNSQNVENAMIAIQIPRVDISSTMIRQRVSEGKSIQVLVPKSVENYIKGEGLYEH

[2] = viability of uninfected HEp-2 cells – cell-based, HTS, cytotoxicity control for RSV inhibitor project, dose response (AID 2410); type: functional; conditions: human respiratory syncytial virus
Prothrombin = Prothrombin (Homo sapiens, UniProt P00734); experiment: Thrombin 1536 HTS Dose Response Confirmation. [Related pubchem assays: 1046 (Thrombin 1536 HTS; hits were confirmed in this assay)]; type: functional
[3] = target: T1, Probable nicotinate-nucleotide adenylyltransferase; type: functional, Staphylococcus aureus subsp. aureus N315
[4] = blockers of bursicon-stimulated LGR2 cAMP reporter – cell-based, HEK293, CRE-luciferase reporter, cherry pick, set 2, dose response (AID 743343); type: functional;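 further: transfected cells were stimulated with diluted bursicon conditioned medium after compound addition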
[5] = Luminescence Cell-Based Dose Response HTS to Identify Inhibitors of 5'UTR Stem-Loop Driven Prion Protein mRNA Translation in H4 Neuroglioblastoma Cells. [Related pubchem assays: 1827 (Project Summary), 1813 (Primary HTS)]; type: functional
[6] = luciferase reporter signal suppression in cells – H4 neuroglioma cells, luminescence, dose response (AID 1990); type: functional, cell-based
HEK293 = experiment: EBV LMP1 TES2 canonical NF-kB signalling blockers – cell-based, HEK293, luciferase, cherry-pick, dose response (AID 588343); type: functional; conditions: Homo sapiens
[7] = alpha-synuclein stem-loop luciferase translation blockers – H4 neuroglioma cells, luminescence, confirmation (AID 1988); type: functional, cell-based
[8] = viability loss in HEK293 cells – cell-based, plate reader, cherry-picked samples, cytotoxicity control, dose response (AID 743446); type: functional
[9] = blockade of melanocortin 4 receptor signaling – cell-based, plate reader, cherry pick, counter-screen for LGR2 antagonist project, dose response (AID 743444); type: functional;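 further: transfected HEK 293 cells stimulated with alpha-MSH peptide; potency of inhibitors of the alpha-MSH evoked signal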
Protein RecA = target: T2, Protein RecA (Mycobacterium tuberculosis, UniProt P9WHJ3); experiment: Fluorescence Cell-Free Homogeneous Dose Retest to Identify Inhibitors of RecA-Intein Splicing Activity. [Related pubchem assays (depositor defined):AID2097, AID2223, AID489010, AID492950]; type: functional
T2 sequence (P9WHJ3 whole entry): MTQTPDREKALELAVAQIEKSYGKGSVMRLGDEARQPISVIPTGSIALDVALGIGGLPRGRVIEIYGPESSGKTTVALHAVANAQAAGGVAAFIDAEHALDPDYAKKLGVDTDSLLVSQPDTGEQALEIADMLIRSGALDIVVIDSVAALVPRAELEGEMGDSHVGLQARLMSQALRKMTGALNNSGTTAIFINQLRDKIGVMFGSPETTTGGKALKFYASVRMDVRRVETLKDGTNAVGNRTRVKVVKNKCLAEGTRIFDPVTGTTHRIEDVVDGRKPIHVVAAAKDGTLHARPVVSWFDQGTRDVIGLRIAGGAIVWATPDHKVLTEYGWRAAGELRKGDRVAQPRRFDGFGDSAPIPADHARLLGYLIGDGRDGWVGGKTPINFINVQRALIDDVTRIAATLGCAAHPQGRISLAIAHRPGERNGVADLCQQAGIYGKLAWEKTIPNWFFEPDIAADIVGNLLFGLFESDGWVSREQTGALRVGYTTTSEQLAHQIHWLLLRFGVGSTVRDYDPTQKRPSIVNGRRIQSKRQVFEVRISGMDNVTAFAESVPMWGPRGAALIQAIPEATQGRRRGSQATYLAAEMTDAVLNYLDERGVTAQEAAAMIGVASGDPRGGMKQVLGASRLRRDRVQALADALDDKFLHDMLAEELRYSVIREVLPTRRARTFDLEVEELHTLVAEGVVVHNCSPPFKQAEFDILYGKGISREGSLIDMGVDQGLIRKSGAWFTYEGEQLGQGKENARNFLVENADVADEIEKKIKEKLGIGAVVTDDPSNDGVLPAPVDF

[10] = target: T3, Apoptotic protease-activating factor 1 (Homo sapiens, UniProt O14727); type: functional
T3 sequence (O14727 whole entry): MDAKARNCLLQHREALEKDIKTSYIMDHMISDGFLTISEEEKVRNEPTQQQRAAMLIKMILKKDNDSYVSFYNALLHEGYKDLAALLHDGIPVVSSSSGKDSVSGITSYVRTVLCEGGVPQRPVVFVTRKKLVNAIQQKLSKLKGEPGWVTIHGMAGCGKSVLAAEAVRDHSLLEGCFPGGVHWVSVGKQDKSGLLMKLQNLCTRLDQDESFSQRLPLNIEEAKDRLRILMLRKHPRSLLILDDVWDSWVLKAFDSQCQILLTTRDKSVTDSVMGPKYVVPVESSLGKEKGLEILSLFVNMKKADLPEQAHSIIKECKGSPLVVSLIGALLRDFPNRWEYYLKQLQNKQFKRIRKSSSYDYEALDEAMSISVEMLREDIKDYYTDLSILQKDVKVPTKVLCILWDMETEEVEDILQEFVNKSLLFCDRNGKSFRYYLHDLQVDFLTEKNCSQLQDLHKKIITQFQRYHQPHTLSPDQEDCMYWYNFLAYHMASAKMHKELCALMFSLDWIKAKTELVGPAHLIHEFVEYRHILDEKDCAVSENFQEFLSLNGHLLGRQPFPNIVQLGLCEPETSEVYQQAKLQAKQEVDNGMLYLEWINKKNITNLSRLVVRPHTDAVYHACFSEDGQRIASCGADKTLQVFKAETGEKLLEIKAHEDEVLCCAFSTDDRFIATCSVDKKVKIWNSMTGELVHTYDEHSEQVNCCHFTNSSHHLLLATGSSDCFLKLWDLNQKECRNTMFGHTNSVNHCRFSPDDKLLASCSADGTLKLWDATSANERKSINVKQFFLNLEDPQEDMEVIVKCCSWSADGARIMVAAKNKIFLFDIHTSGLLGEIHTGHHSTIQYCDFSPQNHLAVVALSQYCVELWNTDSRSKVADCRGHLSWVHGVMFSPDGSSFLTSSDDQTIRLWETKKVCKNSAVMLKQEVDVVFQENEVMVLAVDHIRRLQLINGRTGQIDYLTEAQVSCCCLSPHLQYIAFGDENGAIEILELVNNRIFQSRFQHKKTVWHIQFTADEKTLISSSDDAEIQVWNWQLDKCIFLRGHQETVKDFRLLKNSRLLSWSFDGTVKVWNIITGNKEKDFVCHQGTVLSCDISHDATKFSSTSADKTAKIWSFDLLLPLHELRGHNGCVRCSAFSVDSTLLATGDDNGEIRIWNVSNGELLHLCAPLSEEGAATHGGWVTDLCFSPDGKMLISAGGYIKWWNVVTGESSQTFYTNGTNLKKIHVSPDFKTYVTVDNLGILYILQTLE

[11] = target: Glucose-6-phosphate 1-dehydrogenase (Homo sapiens, UniProt P11413); experiment: inhibition of Homo sapiens G6PD, dose series – biochemical, fluorescence, selectivity assay for P. falciparum G6PD inhibitor project, dose response (AID 504792); type: functional
Chain of Glucose-6-phosphate 1-dehydrogenase (P11413 whole entry): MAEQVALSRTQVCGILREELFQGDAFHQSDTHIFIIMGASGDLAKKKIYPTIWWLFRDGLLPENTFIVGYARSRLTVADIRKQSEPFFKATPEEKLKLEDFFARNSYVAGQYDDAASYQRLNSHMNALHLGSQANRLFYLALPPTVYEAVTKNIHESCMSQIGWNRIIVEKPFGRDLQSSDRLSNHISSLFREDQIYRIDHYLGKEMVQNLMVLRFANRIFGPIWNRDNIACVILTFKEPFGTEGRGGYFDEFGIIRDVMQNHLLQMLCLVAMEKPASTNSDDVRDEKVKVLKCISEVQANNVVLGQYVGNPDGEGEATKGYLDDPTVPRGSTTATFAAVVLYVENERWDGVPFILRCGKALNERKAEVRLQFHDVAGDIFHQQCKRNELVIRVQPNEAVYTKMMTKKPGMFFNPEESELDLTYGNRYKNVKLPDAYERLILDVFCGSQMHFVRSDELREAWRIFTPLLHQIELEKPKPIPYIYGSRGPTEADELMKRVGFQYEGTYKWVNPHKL

[12] = target: T4, Replicative DNA helicase DnaB (Mycobacterium tuberculosis, UniProt P9WMR3); experiment: DnaB intein splicing inhibitors, dose response, biochemical, cell-free fluorescence (AID 449749); type: functional
T4 sequence (P9WMR3 whole entry): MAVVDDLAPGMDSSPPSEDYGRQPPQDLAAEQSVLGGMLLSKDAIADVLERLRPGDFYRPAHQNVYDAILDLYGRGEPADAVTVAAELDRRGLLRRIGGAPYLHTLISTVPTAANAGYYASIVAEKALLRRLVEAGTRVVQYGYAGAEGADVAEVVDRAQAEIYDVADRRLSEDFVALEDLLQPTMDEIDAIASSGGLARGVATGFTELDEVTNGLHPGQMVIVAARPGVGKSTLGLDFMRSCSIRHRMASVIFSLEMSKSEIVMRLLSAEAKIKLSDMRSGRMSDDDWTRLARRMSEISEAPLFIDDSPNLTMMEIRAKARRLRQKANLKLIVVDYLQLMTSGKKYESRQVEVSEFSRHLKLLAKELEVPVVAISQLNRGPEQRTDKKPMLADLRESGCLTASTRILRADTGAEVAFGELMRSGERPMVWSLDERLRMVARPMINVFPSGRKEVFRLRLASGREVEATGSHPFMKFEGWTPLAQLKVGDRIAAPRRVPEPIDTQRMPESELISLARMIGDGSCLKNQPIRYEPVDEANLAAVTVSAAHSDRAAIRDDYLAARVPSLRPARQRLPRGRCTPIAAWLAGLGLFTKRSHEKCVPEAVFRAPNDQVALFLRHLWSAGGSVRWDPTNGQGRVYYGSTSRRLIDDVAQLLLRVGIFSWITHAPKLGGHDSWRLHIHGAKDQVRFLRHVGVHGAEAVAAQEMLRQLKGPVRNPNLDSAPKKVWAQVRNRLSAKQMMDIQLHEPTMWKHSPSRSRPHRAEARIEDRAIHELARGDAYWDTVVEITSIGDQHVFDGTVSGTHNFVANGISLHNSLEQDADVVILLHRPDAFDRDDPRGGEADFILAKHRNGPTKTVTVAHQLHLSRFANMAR

P388 = experiment: cells; type: functional; conditions: Mus musculus
P388/ADR = experiment: cells; type: functional; conditions: Mus musculus
SN12K1 = experiment: cells; type: functional; conditions: Homo sapiens
[13] = target: T5, Heat shock factor protein 1 (Mus musculus, UniProt P38532); experiment: enhancement of HSF1-driven luciferase signal – cell-based, NIH3T3, luminescence, dose retest, confirmation (AID 435004); type: functional;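 further: stress induced by proteasome inhibitor MG132 added 30 min after compound; luciferase reporter driven by HSF1 response element in NIH3T3 cells; actives raise luminescence as potentiators of the MG132 stress response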
T5 sequence (P38532 whole entry): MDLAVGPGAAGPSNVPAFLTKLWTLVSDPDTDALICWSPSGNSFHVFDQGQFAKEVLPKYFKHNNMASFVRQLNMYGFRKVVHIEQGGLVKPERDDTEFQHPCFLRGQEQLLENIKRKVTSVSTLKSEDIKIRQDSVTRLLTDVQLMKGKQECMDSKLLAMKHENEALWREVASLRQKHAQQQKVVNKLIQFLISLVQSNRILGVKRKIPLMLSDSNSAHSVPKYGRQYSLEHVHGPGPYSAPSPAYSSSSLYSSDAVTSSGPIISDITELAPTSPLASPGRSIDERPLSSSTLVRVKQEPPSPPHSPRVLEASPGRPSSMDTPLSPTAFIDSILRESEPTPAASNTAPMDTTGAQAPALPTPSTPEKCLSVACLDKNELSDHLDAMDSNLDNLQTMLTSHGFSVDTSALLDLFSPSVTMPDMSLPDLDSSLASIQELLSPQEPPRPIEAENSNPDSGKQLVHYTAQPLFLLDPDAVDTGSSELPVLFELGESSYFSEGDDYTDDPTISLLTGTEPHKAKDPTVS

[14] = target: Disintegrin and metalloproteinase domain-containing protein 17 (Homo sapiens, UniProt P78536); experiment: exosite inhibitors of ADAM17, dose response, biochemical (AID 743260)
Chain of Disintegrin and metalloproteinase domain-containing protein 17 (P78536 whole entry, the tested form may be a part): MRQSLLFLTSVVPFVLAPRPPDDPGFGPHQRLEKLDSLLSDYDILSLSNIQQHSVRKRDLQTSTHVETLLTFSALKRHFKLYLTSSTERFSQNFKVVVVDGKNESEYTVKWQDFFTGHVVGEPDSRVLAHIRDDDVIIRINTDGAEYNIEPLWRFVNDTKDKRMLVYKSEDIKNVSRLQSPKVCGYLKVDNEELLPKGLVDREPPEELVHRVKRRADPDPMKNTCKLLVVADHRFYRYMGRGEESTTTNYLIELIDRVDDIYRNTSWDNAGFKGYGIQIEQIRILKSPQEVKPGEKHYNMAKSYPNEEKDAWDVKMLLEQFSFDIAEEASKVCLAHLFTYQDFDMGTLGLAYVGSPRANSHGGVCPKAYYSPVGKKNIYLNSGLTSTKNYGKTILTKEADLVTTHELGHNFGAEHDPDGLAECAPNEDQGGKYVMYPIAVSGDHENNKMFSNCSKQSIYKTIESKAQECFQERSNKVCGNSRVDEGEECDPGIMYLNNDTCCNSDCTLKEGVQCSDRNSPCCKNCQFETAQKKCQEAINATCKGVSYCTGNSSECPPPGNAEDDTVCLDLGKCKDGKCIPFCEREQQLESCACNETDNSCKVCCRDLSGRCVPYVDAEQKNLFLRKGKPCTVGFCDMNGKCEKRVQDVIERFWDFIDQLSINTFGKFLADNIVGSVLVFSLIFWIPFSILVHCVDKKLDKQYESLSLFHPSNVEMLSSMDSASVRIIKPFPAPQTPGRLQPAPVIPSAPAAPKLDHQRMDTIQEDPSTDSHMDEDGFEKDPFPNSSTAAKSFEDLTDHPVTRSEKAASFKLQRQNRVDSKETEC

## Cn1c(SCC(=O)N2c3ccccc3CCc3ccccc32)nnc1-c1cc2ccccc2cc1O
[1]
  IC50: 24.5 µM (active)
[2]
  CC50: > 50 µM (active)
Prothrombin
  IC50: > 50 µM (not active)
[3]
  IC50: 7.15 µM (active)

## Cc1csc(SCC(=O)NCc2ccccc2Cl)n1
Prothrombin
  IC50: > 50 µM (not active)

## Cc1ccc(C(=O)Nc2ccc3c(c2)OCCO3)c(Cl)c1
[4]
  AC50: 3.65 µM (active)
[5]
  EC50: 5.14 µM (active)
[6]
  EC50: 6.61 µM (inconclusive)
HEK293
  AC50: 1.27 µM (active)
[7]
  EC50: 3.89 µM (active)
[8]
  AC50: > 52 µM (inactive)
[9]
  AC50: 3.76 µM (active)

## COc1ccc(OCC(=O)Nc2cccc3ncccc23)cc1
Prothrombin
  IC50: > 50 µM (not active)

## CC(=O)Nc1ccc(S(=O)(=O)[N-]C2=C(n3cc[n+](-c4ccccn4)c3)C(=O)c3ccccc3C2=O)cc1
Protein RecA
  EC50: 3.46 µM (active)
[10]
  IC50: 6.71 µM (active)
[11]
  IC50: > 80 µM (inactive)
[12]
  AC50: 3.92 µM (active)

## CCCNC1=C(C)C(=O)C2=C(C1=O)[C@H](COC(N)=O)[C@]1(OC)[C@@H]3N[C@@H]3CN21
P388
  GI50: 0.32 µM (active)
P388/ADR
  GI50: 4.66 µM (inactive)
SN12K1
  GI50: 4.36 µM (inactive)

## Cc1ccc(C(C)(C)C[P+](C)(c2ccccc2)c2ccccc2)cc1
P388
  GI50: 0.508 µM (active)
P388/ADR
  GI50: > 100 µM (inactive)
SN12K1
  GI50: 6.49 µM (inactive)

## COc1ccc2c(c1)c1c(C)c3cnccc3c(C)c1n2CCCN
P388
  GI50: 0.0505 µM (active)
P388/ADR
  GI50: 0.185 µM (active)
SN12K1
  GI50: 0.102 µM (active)

## CC(=O)Nc1cccc(/N=N/N(C)C)c1
P388
  GI50: > 100 µM (inactive)
P388/ADR
  GI50: > 100 µM (inactive)
SN12K1
  GI50: > 57.5 µM (inactive)

## CCCC(O)C(NC(=O)CCl)C(=O)O (configuration not stated)
P388
  GI50: > 100 µM (inactive)
P388/ADR
  GI50: > 100 µM (inactive)
SN12K1
  GI50: > 100 µM (inactive)

## CSCCC(NC(=O)C(Cc1ccccc1)NC(=O)CNC(=O)CNC(=O)C(N)Cc1ccc(O)cc1)C(=O)O (configuration not stated)
P388
  GI50: > 100 µM (inactive)
P388/ADR
  GI50: > 100 µM (inactive)
SN12K1
  GI50: > 100 µM (inactive)

## COC(=O)c1cccc(Cn2c(Cl)c(/C=N/Nc3ccccc3C)sc2=O)c1
[13]
  EC50: 61.2 µM (active)
[14]
  IC50: > 69.5 µM (inactive)
